In one assay the target is DNMT1 (Homo sapiens, UniProt P26358). Put plainly: DNMT1 biochemical activity, breaklight assay and/or SPA assay.
Assay [1] has as its system erythroid progenitor cells (EPCs). Put plainly: Fetal hemoglobin (HbF) ELISA in day 7 erythroid progenitor cells.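 For all read-outs here: for fetal hemoglobin induction normalized to vehicle-treated cells.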 The class given is cell-based, human. To be noted: HbF ELISA, day 7 EPCs, 5 days; for EC50: Homo sapiens, Erythroid progenitor cell, read-out: EPC ELISA (pEC50 category) (converted). Put shortly: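 CD34+-derived EPCs, 1,000 cells/well, rhEPO 3 U/mL; Compound A 22-pt series, […]; 5 d, 37° C, 5% CO2. Freeze-thaw lysis, anti-HbF capture + HRP anti-HbF, TMB, OD450. Normalized to DMSO wells.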
A general note: In an ELISA, binding on a coated surface is turned into a signal by an enzyme label.

Setting [2] is: binned activity in either the breaklight or the SPA assay, read-out: DNMT1 BioChemical (pIC50 category) (converted).
[3] abbreviates: breaklight assay and/or SPA assay, repeated experimental runs, read-out: average pIC50 against DNMT1 (converted).
The mark [4] stands for this setting: binned activity in either the breaklight or the SPA assay.

Where “and” joins values, the source holds several entries; their conditions need not be identical. Equal values may be shown once. Read-outs that look alike come from different tables or passages of the source.

Sequence of DNMT1 (P26358 whole entry, looked up): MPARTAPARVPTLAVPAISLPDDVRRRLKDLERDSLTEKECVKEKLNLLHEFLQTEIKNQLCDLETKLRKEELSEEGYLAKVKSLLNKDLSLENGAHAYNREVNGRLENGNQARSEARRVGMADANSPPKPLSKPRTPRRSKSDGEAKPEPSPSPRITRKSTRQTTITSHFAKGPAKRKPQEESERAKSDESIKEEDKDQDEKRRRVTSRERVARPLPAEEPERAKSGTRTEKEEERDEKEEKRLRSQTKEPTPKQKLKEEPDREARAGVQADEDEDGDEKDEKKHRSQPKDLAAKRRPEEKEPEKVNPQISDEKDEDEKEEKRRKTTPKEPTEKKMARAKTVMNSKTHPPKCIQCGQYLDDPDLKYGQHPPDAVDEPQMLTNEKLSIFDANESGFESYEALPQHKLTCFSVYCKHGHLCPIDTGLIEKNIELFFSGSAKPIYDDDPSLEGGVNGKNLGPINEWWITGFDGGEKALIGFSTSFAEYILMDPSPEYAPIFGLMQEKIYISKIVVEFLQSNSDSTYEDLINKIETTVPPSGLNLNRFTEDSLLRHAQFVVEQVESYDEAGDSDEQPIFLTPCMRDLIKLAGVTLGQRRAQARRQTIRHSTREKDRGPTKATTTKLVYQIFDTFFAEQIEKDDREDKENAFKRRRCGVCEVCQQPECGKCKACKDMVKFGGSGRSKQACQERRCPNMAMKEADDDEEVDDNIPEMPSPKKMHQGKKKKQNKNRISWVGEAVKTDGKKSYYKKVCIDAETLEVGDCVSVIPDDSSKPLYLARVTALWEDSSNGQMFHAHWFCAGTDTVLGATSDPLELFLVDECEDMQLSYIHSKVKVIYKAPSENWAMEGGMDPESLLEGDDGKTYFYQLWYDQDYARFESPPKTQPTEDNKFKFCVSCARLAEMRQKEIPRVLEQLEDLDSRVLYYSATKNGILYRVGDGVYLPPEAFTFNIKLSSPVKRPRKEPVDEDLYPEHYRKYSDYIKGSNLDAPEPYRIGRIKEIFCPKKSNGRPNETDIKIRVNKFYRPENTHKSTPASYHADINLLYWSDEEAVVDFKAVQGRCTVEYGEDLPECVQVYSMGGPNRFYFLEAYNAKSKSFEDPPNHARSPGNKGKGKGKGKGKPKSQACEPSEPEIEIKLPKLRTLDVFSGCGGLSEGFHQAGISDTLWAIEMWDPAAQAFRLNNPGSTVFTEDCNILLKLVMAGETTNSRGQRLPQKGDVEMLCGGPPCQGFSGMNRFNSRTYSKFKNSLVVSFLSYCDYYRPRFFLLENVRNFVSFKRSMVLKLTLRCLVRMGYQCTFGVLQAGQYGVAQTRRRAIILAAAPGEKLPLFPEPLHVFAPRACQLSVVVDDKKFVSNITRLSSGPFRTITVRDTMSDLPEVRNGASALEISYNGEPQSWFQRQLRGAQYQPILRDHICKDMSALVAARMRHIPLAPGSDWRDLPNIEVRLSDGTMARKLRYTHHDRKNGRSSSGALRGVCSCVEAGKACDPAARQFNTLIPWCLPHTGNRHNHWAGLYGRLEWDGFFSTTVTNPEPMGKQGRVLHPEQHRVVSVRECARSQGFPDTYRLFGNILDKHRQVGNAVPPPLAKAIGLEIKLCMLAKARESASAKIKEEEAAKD

Take `CCc1c(C#N)c(SC(C(N)=O)c2ccc(F)c(F)c2)nc(N2CCC(N(C)C)CC2)c1C#N` (stereo not shown) [Example 216, 2-((3,5-Dicyano-6-(4-(dimethylamino)piperidin-1-yl)-4-ethylpyridin-2-yl)thio)-2-(3,4-difluorophenyl)acetamide]: the IC50 on DNMT1 (setting [2]) was 1 to 31.6 µM; on DNMT1 (setting [3]) it was ≥ 1 µM and 1.58 µM. Also, the EC50 in assay [1] is less than 0.316 µM.
For the compound `CCc1c(Cl)c(SC(C(N)=O)c2ccccc2)nc(N2CCNCC2)c1Cl` (stereo not shown) [Example 324, 2-((3,5-Dichloro-4-ethyl-6-(piperazin-1-yl)pyridin-2-yl)thio)-2-phenylacetamide], the IC50 at DNMT1 (DNMT1 BioChemical (pIC50 category), binned activity in either the breaklight or the SPA assay) is 0.316 to 1 µM; against DNMT1 (average pIC50 against DNMT1, breaklight assay and/or SPA assay, repeated experimental runs) it was 0.316 to 1 µM and 0.631 µM. The EC50 in assay [1] is more than 31.6 µM.
Turning to `CCc1c(C#N)c(SC(C(N)=O)c2ccccc2)nc(N2CC3CC2CN3C)c1C#N` (stereo not shown) [Example 303, 2-((3,5-Dicyano-4-ethyl-6-(5-methyl-2,5-diazabicyclo[2.2.1]heptan-2-yl)pyridin-2-yl)thio)-2-phenylacetamide], the IC50 is 0.316 to 1 µM on DNMT1 (setting [2]); 0.316 to 1 µM and 0.631 µM at DNMT1 (setting [3]). Moreover, in assay [1], the EC50 was 0.316 to 1 µM.
As to `CCc1c(C#N)c(SC(C(N)=O)c2ccccc2)nc(N2CCCN(C)CC2)c1C#N` (single isomer, unassigned; isomer 2) [Example 255, 2-((3,5-dicyano-4-ethyl-6-(4-methyl-1,4-diazepan-1-yl)pyridin-2-yl)thio)-2-phenylacetamide (Isomer 2)], at DNMT1 (setting [2]), the IC50 is 1 to 31.6 µM. In addition, the “EPC ELISA (pEC50 category)” value in assay [1] is listed as “C (Category C: 6.0 ≤ x < 6.5)”.
For `N#Cc1c(N2CCCNCC2)nc(SC(C(N)=O)c2ccccc2)c2c1CCC2` (stereo not shown) [Example 171, 2-((4-Cyano-3-(1,4-diazepan-1-yl)-6,7-dihydro-5H-cyclopenta[c]pyridin-1-yl)thio)-2-phenylacetamide], the IC50 at DNMT1 (setting [2]) was 0.316 to 1 µM. In assay [1], the EC50 is more than 31.6 µM.
Regarding `N#Cc1c(SC(C(N)=O)c2ccccc2)nc(N2CCN(CCCN)CC2)c(C#N)c1C1CC1` (stereo not shown) [Example 124, 2-((6-(4-(3-Aminopropyl)piperazin-1-yl)-3,5-dicyano-4-cyclopropylpyridin-2-yl)thio)-2-phenylacetamide], the IC50 on DNMT1 (setting [2]) is 0.316 to 1 µM. The EC50 in assay [1] was 1 to 31.6 µM.
On to `CCc1c(C#N)c(SC(C(N)=O)c2ccccc2)nc(N2CCC(OP(=O)(O)O)C2)c1C#N` (stereo not shown) [Example 150, 1-(6-((2-Amino-2-oxo-1-phenylethyl)thio)-3,5-dicyano-4-ethylpyridin-2-yl)pyrrolidin-3-yl dihydrogen phosphate], for which, at DNMT1 (setting [2]), the IC50 was 1 to 31.6 µM. Moreover, in assay [1], the EC50 was more than 31.6 µM.
For the compound `CCc1c(C#N)c(SC(C(N)=O)c2ccccc2)nc(N2CCC(CN(C)C)C2)c1C#N` (stereo not shown) [Example 512, 2-((3,5-dicyano-6-(3-((dimethylamino)methyl)pyrrolidin-1-yl)-4-ethylpyridin-2-yl)thio)-2-phenylacetamide], the “DNMT1 BioChemical (pIC50 category)” value on DNMT1 (setting [4]) is listed as “D (Category D: ≥6.5)”. In addition, the EC50 in assay [1] is less than 0.316 µM.
For `CCc1c(C#N)c(SC(C(N)=O)c2ccccc2)nc(N2CCC(N(C)CCO)CC2)c1C#N` (stereo not shown) [Example 443, 2-((3,5-dicyano-4-ethyl-6-(4-((2-hydroxyethyl)(methyl)amino)piperidin-1-yl)pyridin-2-yl)thio)-2-phenylacetamide] the same measures were “D (Category D: ≥6.5)” and less than 0.316 µM.
As to `CCc1c(C#N)c(SC(C(N)=O)c2c(F)cccc2F)nc(N2CC[C@H](O)C2)c1C#N` (stereo partly shown) [Example 428], on DNMT1 (setting [2]), the IC50 is 0.316 to 1 µM. Further, in assay [1], the EC50 was 0.316 to 1 µM.
Regarding `CCc1c(C#N)c(SCc2ccc(N(C)S(C)(=O)=O)cc2)nc(N2CCOC(CNC)C2)c1C#N` (stereo not shown) [Example 596, N-(4-(((3,5-dicyano-4-ethyl-6-(2-((methylamino)methyl)morpholino)pyridin-2-yl)thio)methyl)phenyl)-N-methylmethanesulfonamide], the “DNMT1 BioChemical (pIC50 category)” value at DNMT1 (setting [4]) is on record as “D (Category D: ≥6.5)”. In addition, the EC50 in assay [1] was 0.316 to 1 µM.
Taken in the same sequence, the figures for `CCc1c(C#N)c(SCc2ccc(N(C)S(C)(=O)=O)cc2)nc(N2CCOC(CN)C2)c1C#N` (stereo not shown) [Example 591, N-(4-(((6-(2-(aminomethyl)morpholino)-3,5-dicyano-4-ethylpyridin-2-yl)thio)methyl)phenyl)-N-methylmethanesulfonamide] were “D (Category D: ≥6.5)” and less than 0.316 µM.
Turning to `CCc1c(C#N)c(SCc2ccc(CNC(C)=O)cc2)nc(N(C)Cc2nnc[nH]2)c1C#N` [Example 349, N-(4-(((6-(((4H-1,2,4-Triazol-3-yl)methyl)(methyl)amino)-3,5-dicyano-4-ethylpyridin-2-yl)thio)methyl)benzyl)acetamide], the IC50 on DNMT1 (setting [2]) was 0.316 to 1 µM. The EC50 in assay [1] was 1 to 31.6 µM.
As to `CCc1c(C#N)c(SC(C(N)=O)c2ccccc2)nc(N2CCO[C@H](CN)C2)c1C#N` (stereo partly drawn) [Example 564, 2-((6-((R)-2-(aminomethyl)morpholino)-3,5-dicyano-4-ethylpyridin-2-yl)thio)-2-phenylacetamide], the “DNMT1 BioChemical (pIC50 category)” value on DNMT1 (setting [4]) is reported as “D (Category D: ≥6.5)”. In addition, in assay [1], the EC50 was less than 0.316 µM.
With `CCc1c(C#N)c(SC(C(N)=O)c2ccccc2)nc(N2CC(F)(CN)C2)c1C#N` (stereo not shown) [Example 688, 2-((6-(3-(aminomethyl)-3-fluoroazetidin-1-yl)-3,5-dicyano-4-ethylpyridin-2-yl)thio)-2-phenylacetamide], the “DNMT1 BioChemical (pIC50 category)” value on DNMT1 (setting [4]) is “D (Category D: ≥6.5)”. Moreover, the EC50 in assay [1] is 1 to 31.6 µM.
With `CCc1c(C#N)c(SC(C(N)=O)c2ccccc2)nc(N2CCC(NCc3cccc(OC)n3)CC2)c1C#N` (stereo not shown) [Example 456, 2-((3,5-dicyano-4-ethyl-6-(4-(((6-methoxypyridin-2-yl)methyl)amino)piperidin-1-yl)pyridin-2-yl)thio)-2-phenylacetamide], the “DNMT1 BioChemical (pIC50 category)” value at DNMT1 (setting [4]) is “D (Category D: ≥6.5)”. The EC50 in assay [1] is less than 0.316 µM.
Take `CN(CCOC(N)=O)c1nc(SC(C(N)=O)c2ccccc2)c(C#N)c(C2CC2)c1C#N` (stereo not shown) [Example 397, 2-((6-((2-Amino-2-oxo-1-phenylethyl)thio-3,5-dicyano-4-cyclopropylpyridin-2-yl)methyl)amino)ethyl carbamate]: the IC50 at DNMT1 (setting [2]) is 0.316 to 1 µM. The EC50 in assay [1] is 1 to 31.6 µM.
`CCc1c(C#N)c(SCc2ccc(CNC(C)=O)cc2)nc(N2CCC(NC(C)=O)CC2)c1C#N` [Example 290, N-(1-(6-((4-(Acetamidomethyl)benzyl)thio)-3,5-dicyano-4-ethylpyridin-2-yl)piperidin-4-yl)acetamide]: the IC50 on DNMT1 (setting [2]) is 0.316 to 1 µM. In assay [1], the EC50 is 1 to 31.6 µM.
Take `CCc1c(C#N)c(SC(C(N)=O)c2ccccc2)nc(N(C)Cc2ncc[nH]2)c1C#N` (stereo not shown) [Example 364, 2-((6-(((1H-Imidazol-2-yl)methyl)(methyl)amino)-3,5-dicyano-4-ethylpyridin-2-yl)thio)-2-phenylacetamide]: the “DNMT1 BioChemical (pIC50 category)” value at DNMT1 (setting [4]) was “D (Category D: ≥6.5)”. Besides, the EC50 in assay [1] is less than 0.316 µM.
With `CCc1c(C#N)c(SC(C(N)=O)c2ccccc2)nc(N2CCC(OC3COC3)CC2)c1C#N` (stereo not shown) [Example 231, 2-((3,5-Dicyano-4-ethyl-6-(4-(oxetan-3-yloxy)piperidin-1-yl)pyridin-2-yl)thio)-2-phenylacetamide], the IC50 on DNMT1 (setting [2]) is 0.316 to 1 µM. The EC50 in assay [1] was 0.316 to 1 µM.

The values are drawn from US10975056B2 (GlaxoSmithKline Intellectual Property Development Limited, priority 2016, dated 2021).
